Drawing on patent US20100063047A1 (KALYPSYS, INC., priority 2008, published 2010), this text covers EC50 for 34 compounds.

For one test, the target named is T1, human H1 (Homo sapiens, UniProt P35367).
T1 construct: host or cells: CHO-K1, also expressing mitochondrion-targeted aequorin
T1 sequence (P35367 whole entry): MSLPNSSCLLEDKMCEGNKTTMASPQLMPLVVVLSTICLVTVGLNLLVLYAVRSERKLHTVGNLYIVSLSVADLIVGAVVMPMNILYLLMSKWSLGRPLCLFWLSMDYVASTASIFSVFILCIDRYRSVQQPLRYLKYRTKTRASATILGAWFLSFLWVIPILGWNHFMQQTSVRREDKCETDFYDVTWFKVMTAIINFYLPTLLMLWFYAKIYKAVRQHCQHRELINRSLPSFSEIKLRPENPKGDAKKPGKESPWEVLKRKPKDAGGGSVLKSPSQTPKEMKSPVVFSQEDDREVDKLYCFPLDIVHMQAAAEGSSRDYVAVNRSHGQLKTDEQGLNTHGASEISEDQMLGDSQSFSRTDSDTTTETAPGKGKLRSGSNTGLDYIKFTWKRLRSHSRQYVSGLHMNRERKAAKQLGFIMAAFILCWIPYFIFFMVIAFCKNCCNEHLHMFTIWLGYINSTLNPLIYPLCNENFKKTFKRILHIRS
In words: In vitro histamine H1 receptor cell-based aequorin bioluminescence antagonist assay.
Details: not given
As to the method: In vitro Histamine Receptor Cell-Based Assays
The cell-based assays utilize an aequorin dependent bioluminescence signal. Doubly-transfected, stable CHO—K1 cell lines expressing human H1 or H4, mitochondrion-targeted aequorin, and (H4 only) human G protein Gα16 are obtained from Perkin-Elmer. Cells are maintained in F12 (Ham's) growth medium, containing 10% (vol./vol.) fetal bovine serum, penicillin (100 IU/mL), streptomycin (0.1 mg/mL), zeocin (0.25 mg/mL) and geneticin (0.40 mg/mL). Cell media components are from Invitrogen, Inc. One day prior to assay, the growth medium is replaced with the same, excluding zeocin and geneticin.
For assay preparation, growth medium is aspirated, and cells are rinsed with calcium-free, magnesium-free phosphate-buffered saline, followed by two to three minute incubation in Versene (Invitrogen, Inc.) at 37° C. Assay medium (DMEM:F12 [50:50], phenol-red free, containing 1 mg/mL protease-free bovine serum albumin) is added to collect the released cells, which are then centrifuged. The cell pellet is re-suspended in assay medium, centrifuged once more, and re-suspended in assay medium to a final density of 5×10^6 cells/mL. Coelenterazine-h dye (500 μM in ethanol) is added to a final concentration of 5 μM, and mixed immediately. The conical tube containing the cells is then wrapped with foil to protect the light-sensitive dye. The cells are incubated for four hours further at room temperature (approximately 21° C.) with end-over-end rotation to keep them in suspension.
Just before assay, the dye-loaded cells are diluted to 0.75×10^6 cells/mL (H1 receptor) or 1.5×10^6 cells/mL (H4 receptor) with additional assay medium. Cells are dispensed to 1536 well micro-titer plates at 3 μL/well. To assay receptor antagonism, 60 nl of 100× concentration test compounds in 100% dimethyl sulfoxide (DMSO) are dispensed to the wells, one compound per well, by passive pin transfer, and the plates are incubated for 15 minutes at room temperature. […] The pipette dispenses 3 μL/well of agonist (histamine, at twice the final concentration, where final concentration is a previously determined EC80) in assay medium, with concurrent bioluminescence detection. Agonist activity of test compounds is excluded by separate assays that measure response to test compounds immediately, without added histamine agonist.
CCD image capture on the Lumilux includes a 5 second baseline read prior to agonist addition, and generally a 40 second read per plate after agonist addition. A decrease in bioluminescence signal (measured either as area-under-the-curve, or maximum signal amplitude minus minimum signal amplitude) correlates with receptor antagonism in a dose dependent manner. The negative control is DMSO lacking any test compound. For antagonist assays, the positive controls are diphenhydramine (2-Diphenylmethoxy-N,N-dimethylethylamine, 10 μM final concentration, H1 receptor) or JNJ7777120 (1-[(5-Chloro-1H-indol-2-yl)carbonyl]-4-methyl-piperazine, 10 μM final concentration, H4 receptor). Efficacy is measured as a percentage of positive control activity.
Usually EC50 stands for the concentration at which the effect is half-maximal. The compound `COc1ccc(OC)c(CCNc2ncnc3scc(C)c23)c1` [Example 169, N-[2-(2,5-dimethoxyphenyl)ethyl]-5-methylthieno[2,3-d]pyrimidin-4-amine] returned an EC50 of over 10 µM.

The test is the same for the next values; noted with them: CHO-K1 cells expressing human H1 and aequorin; histamine at EC80; read-out: H1 Antagonist EC50.
On to `Cc1csc2ncnc(NCCc3c[nH]c4ccccc34)c12` [Example 155, N-[2-(1H-indol-3-yl)ethyl]-5-methylthieno[2,3-d]pyrimidin-4-amine], for which the EC50 is over 10 µM. Same read-out and setting: in the case of `Cc1csc2ncnc(NCc3ccc(C(C)(C)C)cc3)c12` [Example 156, N-[(4-tert-butylphenyl)methyl]-5-methylthieno[2,3-d]pyrimidin-4-amine] it was over 10 µM; in that of `Cc1csc2ncnc(NCCCN(C)c3ccccc3)c12` [Example 157, N-methyl-N-[3-({5-methylthieno[2,3-d]pyrimidin-4-yl}amino)propyl]aniline], over 10 µM. Same read-out and setting: to `COc1cc(CNc2ncnc3scc(C)c23)cc(OC)c1` [Example 159, N-[(3,5-dimethoxyphenyl)methyl]-5-methylthieno[2,3-d]pyrimidin-4-amine] belongs over 10 µM; to `COc1ccc(CNc2ncnc3scc(C)c23)cc1OC` [Example 160, N-[(3,4-dimethoxyphenyl)methyl]-5-methylthieno[2,3-d]pyrimidin-4-amine], over 10 µM. On the same count and under the same terms, in the case of `CCOC(=O)N1CCC(Nc2ncnc3scc(C)c23)CC1` [Example 162, ethyl 4-({5-methylthieno[2,3-d]pyrimidin-4-yl}amino)piperidine-1-carboxylate] it was over 10 µM; in that of `Cc1csc2ncnc(NCCCNC(=O)OC(C)(C)C)c12` [Example 163, tert-butyl N-[3-({5-methylthieno[2,3-d]pyrimidin-4-yl}amino)propyl]carbamate], over 10 µM. With `Cc1csc2ncnc(NCc3ccc(C(F)(F)F)cc3)c12` [Example 164, 5-methyl-N-{[4-(trifluoromethyl)phenyl]methyl}thieno[2,3-d]pyrimidin-4-amine], the EC50 is over 10 µM. Same read-out and setting: in the case of `Cc1csc2ncnc(NCc3cccc(C(F)(F)F)c3)c12` [Example 165, 5-methyl-N-{[3-(trifluoromethyl)phenyl]methyl}thieno[2,3-d]pyrimidin-4-amine] it was over 10 µM. The same measure, in the same setting: in the case of `Cc1csc2ncnc(NCc3ccc(Cl)c(Cl)c3)c12` [Example 166, N-[(3,4-dichlorophenyl)methyl]-5-methylthieno[2,3-d]pyrimidin-4-amine] it was over 10 µM. For `Cc1csc2ncnc(NCc3ccc(Cl)cc3Cl)c12` [Example 167, N-[(2,4-dichlorophenyl)methyl]-5-methylthieno[2,3-d]pyrimidin-4-amine], the EC50 was over 10 µM.

Take `Cc1csc2ncnc(NC3CCN(Cc4ccccc4)C3)c12` (stereo not shown) [Example 168, 1-benzyl-N-{5-methylthieno[2,3-d]pyrimidin-4-yl}pyrrolidin-3-amine]: the EC50 is over 10 µM. Turning to `Cc1csc2ncnc(NCCc3ccc(S(N)(=O)=O)cc3)c12` [Example 173, 4-[2-({5-methylthieno[2,3-d]pyrimidin-4-yl}amino)ethyl]benzene-1-sulfonamide], the EC50 is over 10 µM. Same read-out and setting: in the case of `Cc1csc2ncnc(NCCc3ccc4c(c3)OCO4)c12` [Example 175, N-[2-(2H-1,3-benzodioxol-5-yl)ethyl]-5-methylthieno[2,3-d]pyrimidin-4-amine] it was over 10 µM; in that of `Cc1csc2ncnc(NCCC(c3ccccc3)c3ccccc3)c12` [Example 176, N-(3,3-diphenylpropyl)-5-methylthieno[2,3-d]pyrimidin-4-amine], over 10 µM.

As to `CCCCN(C)c1ncnc2scc(C)c12` [Example 187, N-butyl-N,5-dimethylthieno[2,3-d]pyrimidin-4-amine], the EC50 was over 10 µM. On the same count and under the same terms, in the case of `Cc1csc2ncnc(N3CCSC3)c12` [Example 189, 3-{5-methylthieno[2,3-d]pyrimidin-4-yl}-1,3-thiazolidine] it was over 10 µM; in that of `Cc1csc2ncnc(N3CCCCC3C)c12` (stereo not shown) [Example 190, 2-methyl-1-{5-methylthieno[2,3-d]pyrimidin-4-yl}piperidine], over 10 µM. Take `Cc1csc2ncnc(N3CCN(C)CC3)c12` [Example 192, 1-methyl-4-{5-methylthieno[2,3-d]pyrimidin-4-yl}piperazine]: the 50% effective concentration (EC50) was over 10 µM. As to `COC[C@@H]1CCCN1c1ncnc2scc(C)c12` [Example 205, (2S)-2-(methoxymethyl)-1-{5-methylthieno[2,3-d]pyrimidin-4-yl}pyrrolidine], the EC50 was over 10 µM. On the same count and under the same terms, in the case of `Cc1csc2ncnc(N3CCCCC3CO)c12` (stereo not shown) [Example 206, (1-{5-methylthieno[2,3-d]pyrimidin-4-yl}piperidin-2-yl)methanol] it was over 10 µM. Same read-out and setting: in the case of `Cc1csc2ncnc(N3CCCCC3CCO)c12` (stereo not shown) [Example 215, 2-(1-{5-methylthieno[2,3-d]pyrimidin-4-yl}piperidin-2-yl)ethan-1-ol] it was over 10 µM; in that of `Cc1csc2ncnc(N3CCc4ccccc4C3)c12` [Example 216, 2-{5-methylthieno[2,3-d]pyrimidin-4-yl}-1,2,3,4-tetrahydroisoquinoline], over 10 µM. The same measure, in the same setting: to `CCN(Cc1ccccc1)c1ncnc2scc(C)c12` [Example 217, N-benzyl-N-ethyl-5-methylthieno[2,3-d]pyrimidin-4-amine] belongs over 10 µM. Regarding `COC(=O)C1CCN(c2ncnc3scc(C)c23)CC1` [Example 224, methyl 1-{5-methylthieno[2,3-d]pyrimidin-4-yl}piperidine-4-carboxylate], the EC50 was over 10 µM.

Take `Cc1csc2ncnc(N(CCO)Cc3ccccc3)c12` [Example 226, 2-[benzyl({5-methylthieno[2,3-d]pyrimidin-4-yl})amino]ethan-1-ol]: the EC50 was over 10 µM.

With `CCCCN(Cc1ccccc1)c1ncnc2scc(C)c12` [Example 235, N-benzyl-N-butyl-5-methylthieno[2,3-d]pyrimidin-4-amine], the EC50 was over 10 µM. Regarding `Cc1csc2ncnc(N3CCC(Cc4ccccc4)CC3)c12` [Example 240, 4-benzyl-1-{5-methylthieno[2,3-d]pyrimidin-4-yl}piperidine], the EC50 is over 10 µM. Same read-out and setting: in the case of `Cc1csc2ncnc(N3CCN(CC4CCCCC4)CC3)c12` [Example 247, 1-(cyclohexylmethyl)-4-{5-methylthieno[2,3-d]pyrimidin-4-yl}piperazine] it was over 10 µM. On the same count and under the same terms, to `Cc1csc2ncnc(N3CCN(C(=O)OC(C)(C)C)CC3)c12` [Example 250, tert-butyl 4-{5-methylthieno[2,3-d]pyrimidin-4-yl}piperazine-1-carboxylate] belongs over 10 µM; to `Cc1csc2ncnc(N3CCC(NC(=O)OC(C)(C)C)C3)c12` (stereo not shown) [Example 251, tert-butyl N-(1-{5-methylthieno[2,3-d]pyrimidin-4-yl}pyrrolidin-3-yl)carbamate], over 10 µM; to `Cc1csc2ncnc(N3CCN(c4ccccc4C#N)CC3)c12` [Example 252, 2-(4-{5-methylthieno[2,3-d]pyrimidin-4-yl}piperazin-1-yl)benzonitrile], over 10 µM.

Regarding `Cc1cccc(N2CCN(c3ncnc4scc(C)c34)CC2C)c1` (stereo not shown) [Example 255, 2-methyl-1-(3-methylphenyl)-4-{5-methylthieno[2,3-d]pyrimidin-4-yl}piperazine], the EC50 was over 10 µM.
